Reference: patent EP0300073A1 (priority 1987, dated 1989)

Key:
rhinovirus = settings: cited from earlier work
AIDS = assay: clinical use in AIDS patients (case history, fusidic acid added to the therapeutic regimen); type: in vivo, human
Protocol: Since it is known that fusidic acid can penetrate phagocytic cells and kill intracellular bacteria, fusidic acid was administered to AIDS patients with opportunistic infections in the hope that it might assist other antibiotics in combatting these infections. […] The present invention is based on this unexpected finding.
The patient, a person with a past history of hepatitis (HBsAG positive) and recurrent seborrhoic dermatitis was well until 1984 when they consulted a physician since they were suffering from lethargy, fever and weight loss. […] They remained stable with no further deterioration until 1986 when they suffered further weight loss and diarrhoea. […] Mycobacterium hominis was grown from both the stool and the blood following the detection of acid fast bacilli in a lymph node biopsy. The patient was given isoniazid, ethambutol and rifampicin as well as antiparasitic and local antifungal therapy. After six weeks of treatment there was no improvement with respect to their symptoms and they continued to lose weight (16 kg since admission). […] (orally) was added to their regimen. Two weeks following commencement they became afebrile, began to put on weight and was able to undergo a transurethral prostectomy, following which they returned to work and has been well since. Two months later they had increased their weight by 10 kg.

Coxsackie virus A21 = settings: cited from earlier work
[1] = tested on: HIV prototype isolate CBL-1; assay: in vitro test for anti-HIV activity: prevention of infection of a CD4 positive cell line; type: cell-based; settings: Human immunodeficiency virus 1, read-out: concentration able to inhibit the HIV prototype isolate CBL-1 from infecting the CD4 positive cell line
Source text: (§1) In the in vitro test for anti-HIV activity, a CD4 positive cell line was used.

RF = assay: as above; type: cell-based; settings: Human immunodeficiency virus 1, isolate RF, read-out: concentration required to prevent infection of the CD4 positive cell line
Source text: as §1

gram negative bacilli = settings: cited from earlier work
fungi = settings: cited from earlier work

For `CC(=O)O[C@H]1C[C@@]2(C)[C@@H](C[C@@H](O)[C@H]3[C@@]4(C)CC[C@@H](O)[C@@H](C)[C@@H]4CC[C@@]32C)/C1=C(\CCC=C(C)C)C(=O)O` [fusidic acid], the “in vitro antiviral effect against rhinovirus” value (rhinovirus) is listed as “some in vitro antiviral effect”, the “general condition of AIDS patients” value (AIDS; AIDS patients with opportunistic infections, added to the therapeutic regimen) is listed as “remarkable improvement” and the fever status (AIDS; one AIDS patient, 500 mg t.d.s. orally added to isoniazid, ethambutol, rifampicin, antiparasitic and antifungal therapy, two weeks following commencement) is listed as “afebrile”. For the same compound, the weight increase (AIDS; one AIDS patient, 500 mg t.d.s. orally added to regimen, two months later) was 10 kg, the “in vitro antiviral effect against Coxsackie virus A21” value (Coxsackie virus A21) was “some in vitro antiviral effect” and the minimal effective concentration [1] was 50 µg/mL. The minimal effective concentration (RF) was 100 µg/mL, the “activity against gram negative bacilli” value (gram negative bacilli) was “weak activity” and the activity against fungi (fungi) was “weak activity”.
